Results from patent publication US5601800A, “New multifunctional ligands for potential use in the design therapeutic or diagnostic radiopharmaceutical imaging agents” (Curators of the University of Missouri, priority 1994, dated 1997).

Assay: water solubility
Format: physicochemical

## CCCCP(=N)(CCCC)CCCC [tributylphosphinimine]
  solubility in water: soluble in water
